Bounds are passed on as bounds.

Data set [1] is described as follows: 1-Octanol/water distribution coefficient, logP of compound at 60 ug/ml shaken for 30 mins and measured by ultraviolet spectrophotometry analysis. The data set is classed as physicochemical.
The target in data set [2] is T1, Beta-secretase 1 (Homo sapiens, UniProt P56817). The data set is described as follows: Inhibition of human BACE1 (1 to 460 residues) expressed in baculovirus infected insect cells at 10 uM using Rh-EVNLDAEFK-quencher as substrate measured after 90 mins by FRET assay relative to control.
The target of data set [3] is T1, Beta-secretase 1. The data set can be described thus: Inhibition of human BACE1 (1 to 460 residues) expressed in baculovirus infected insect cells using Rh-EVNLDAEFK-quencher as substrate measured after 90 mins by FRET assay.

T1 sequence (P56817 whole entry, the tested form may be a part): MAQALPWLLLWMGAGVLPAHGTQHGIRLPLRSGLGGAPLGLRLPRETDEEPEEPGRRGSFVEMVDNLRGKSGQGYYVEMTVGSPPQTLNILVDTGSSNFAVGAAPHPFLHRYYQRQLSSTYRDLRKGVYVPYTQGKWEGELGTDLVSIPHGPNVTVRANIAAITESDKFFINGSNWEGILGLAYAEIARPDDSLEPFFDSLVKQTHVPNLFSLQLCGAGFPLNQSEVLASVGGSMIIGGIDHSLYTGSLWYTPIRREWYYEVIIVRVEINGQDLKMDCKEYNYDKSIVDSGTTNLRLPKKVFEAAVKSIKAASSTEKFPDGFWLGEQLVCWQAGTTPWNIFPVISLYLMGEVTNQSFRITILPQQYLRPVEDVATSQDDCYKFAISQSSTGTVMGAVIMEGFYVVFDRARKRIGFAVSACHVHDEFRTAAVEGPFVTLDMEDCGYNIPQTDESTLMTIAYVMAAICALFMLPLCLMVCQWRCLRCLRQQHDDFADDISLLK

Turning to `COc1ccc(-c2cccc(C3(c4ccccc4)N=C(N)N(C)C3=O)c2)c(OC)c1` (stereo unspecified), in data set [1], the lipophilicity (logP) at 0.5 h was 2.46. Moreover, the inhibition at Beta-secretase 1 [2] is 75.5%. This compound also gave an IC50 at Beta-secretase 1 [3] of 1570 nM.
The like results for `Cc1cc(C)cc(-c2cccc(C3(c4ccccc4)N=C(N)N(C)C3=O)c2)c1` (stereo unspecified) were, in that order, 2.56, 47.2% and over 10000 nM.
The like results for `Cc1ccc(C)c(-c2cccc(C3(c4ccccc4)N=C(N)N(C)C3=O)c2)c1` (stereo unspecified) were, in that order, 2.52, 42.1% and over 10000 nM.
The compound `CCc1ccc(-c2cccc(C3(c4ccccc4)N=C(N)N(C)C3=O)c2)cc1` (stereo unspecified) came in with a logP at 0.5 h in data set [1] of 2.56. On Beta-secretase 1 [2], this compound registered an inhibition of 43.5%. The compound further registered an IC50 on Beta-secretase 1 [3] of over 10000 nM.
Taken in the same sequence, the figures for `Cc1cccc(C)c1-c1cccc(C2(c3ccccc3)N=C(N)N(C)C2=O)c1` (stereo unspecified) were 2.42, 34.1% and over 10000 nM.
The compound `CN1C(=O)C(c2ccccc2)(c2cccc(-c3ccc(C(C)(C)C)cc3)c2)N=C1N` (stereo unspecified) displayed a logP at 0.5 h in data set [1] of 3.1. This compound also returned an inhibition at Beta-secretase 1 [2] of 34.2%. The IC50 against Beta-secretase 1 [3] is over 10000 nM.
Taken in the same sequence, the figures for `COc1ccc(-c2cccc(C3(c4ccccc4)N=C(N)N(C)C3=O)c2)cc1OC` (stereo unspecified) were 2.49, 97.5% and 119 nM.
As for `Cc1ccc(-c2cccc(C3(c4ccccc4)N=C(N)N(C)C3=O)c2)cc1C` (stereo unspecified), the logP at 0.5 h in data set [1] came to 2.49. In addition, the inhibition against Beta-secretase 1 [2] was 88.3%. This compound came in with an IC50 on Beta-secretase 1 [3] of 425 nM.
Taken in the same sequence, the figures for `Cc1cc(C)c(-c2cccc(C3(c4ccccc4)N=C(N)N(C)C3=O)c2)c(C)c1` (stereo unspecified) were 2.55, 45.7% and over 10000 nM.
Turning to `Cc1cc(F)ccc1-c1cccc(C2(c3ccccc3)N=C(N)N(C)C2=O)c1` (stereo unspecified), the logP at 0.5 h in data set [1] came to 2.34. Also, at Beta-secretase 1 [2], the inhibition is 87.7%. Besides, the IC50 at Beta-secretase 1 [3] amounted to 456 nM.
The like results for `COc1ccc(OC)c(-c2cccc(C3(c4ccccc4)N=C(N)N(C)C3=O)c2)c1` (stereo unspecified) were, in that order, 2.54, 95% and 195 nM.
The like results for `COc1cccc(-c2cccc(C3(c4ccccc4)N=C(N)N(C)C3=O)c2)c1F` (stereo unspecified) were, in that order, 2.72, 94.7% and 220 nM.
The like results for `COc1cccc(OC)c1-c1cccc(C2(c3ccccc3)N=C(N)N(C)C2=O)c1` (stereo unspecified) were, in that order, 2.02, 82.1% and 720 nM.
`CN1C(=O)C(c2ccccc2)(c2cccc(-c3cccc(-c4ccccc4)c3)c2)N=C1N` (stereo unspecified) returned a logP at 0.5 h in data set [1] of 3.14. Besides, the inhibition at Beta-secretase 1 [2] worked out at 20.5%. Moreover, the IC50 at Beta-secretase 1 [3] is over 10000 nM.
In turn, `CN1C(=O)C(c2ccccc2)(c2cccc(Br)c2)N=C1N` (stereo unspecified) gave a logP at 0.5 h in data set [1] of 2.04. Moreover, the inhibition at Beta-secretase 1 [2] was 33.1%. Besides, on Beta-secretase 1 [3], the IC50 was over 10000 nM.
In data set [1], `CN1C(=O)C(c2ccccc2)(c2ccccc2)N=C1N` yielded a logP at 0.5 h of 1.9. Further, the inhibition on Beta-secretase 1 [2] stood at 62.2%.
As to `CN1C(=O)C(c2ccccc2)(c2cccc(-c3ccc(-c4ccccc4)cc3)c2)N=C1N` (stereo unspecified), in data set [1], the logP at 0.5 h was 3.18. Besides, the inhibition against Beta-secretase 1 [2] is 43.9%. Besides, the IC50 at Beta-secretase 1 [3] is over 10000 nM.
The like results for `COc1cccc(-c2cccc(C3(c4ccccc4)N=C(N)N(C)C3=O)c2)c1OC` (stereo unspecified) were, in that order, 2.15, 78.6% and 1110 nM.
The like results for `CN1C(=O)C(c2ccccc2)(c2cccc(-c3ccc(OCc4ccccc4)cc3)c2)N=C1N` (stereo unspecified) were, in that order, 2.99, 37.7% and over 10000 nM.
The like results for `COc1ccc(F)cc1-c1cccc(C2(c3ccccc3)N=C(N)N(C)C2=O)c1` (stereo unspecified) were, in that order, 2.86, 96% and 173 nM.
`Cc1ccc(F)cc1-c1cccc(C2(c3ccccc3)N=C(N)N(C)C2=O)c1` (stereo unspecified) had a logP at 0.5 h in data set [1] of 2.35. The same compound yielded an inhibition on Beta-secretase 1 [2] of 92%. Besides, the midpoint of inhibition against Beta-secretase 1 [3], the IC50, lay at 328 nM.
`Cc1ccc(-c2cccc(C3(c4ccccc4)N=C(N)N(C)C3=O)c2)c(F)c1` (stereo unspecified) gave a lipophilicity (logP) at 0.5 h in data set [1] of 2.97. In addition, the inhibition at Beta-secretase 1 [2] was 97%. Also, the IC50 on Beta-secretase 1 [3] was 141 nM.
The like results for `Cc1ccc(-c2cccc(C3(c4ccccc4)N=C(N)N(C)C3=O)c2)c(C)c1` (stereo unspecified) were, in that order, 2.51, 40.9% and over 10000 nM.
The like results for `COc1cc(OC)cc(-c2cccc(C3(c4ccccc4)N=C(N)N(C)C3=O)c2)c1` (stereo unspecified) were, in that order, 2.41, 80.7% and 851 nM.

As usually defined, the logP is a log measure of how a compound divides between an organic and an aqueous phase. One may read the inhibition as the share of the control response that was lost under treatment. A high value points to a strong effect. As usually defined, the IC50 is the point on the concentration scale where inhibition reaches its midpoint. A higher IC50 goes with a need for much substance.

Values taken from ChEMBL document CHEMBL4359937, “Design, synthesis and evaluation of 2-amino-imidazol-4-one derivatives as potent β-site amyloid precursor protein cleaving enzyme 1 (BACE-1) inhibitors” (Bioorg Med Chem Lett, 2019).
